From the supplement of paper PMC8967900 come the findings set out here.

SMILES strings stand for the structures.

What all share (test): selective drug sensitivity score (sDSS, relative to normal bone marrow) (sDSS (score)); higher = more potent and effective on the cell line relative to normal bone marrow cells
Common to all, as to details: 72 h

Assay [1] deals with ALL-SIL.
Assay [2] relates to CCRF-CEM.
Assay [3] deals with DND-41.
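Further: ALL cell lines in 384-well plates, five doses spanning 10,000-fold, each plate scaled between vehicle and 100 µmol/L benzalkonium chloride controls, sDSS an adapted area-under-curve metric.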

For the compound `Cn1cncc1[C@@](N)(c1ccc(Cl)cc1)c1ccc2c(c1)c(-c1cccc(Cl)c1)cc(=O)n2C` [Tipifarnib] (top concentration 10000 nM), the “selective drug sensitivity score” value in assay [1] came to 11.1; in assay [2], 10.3; in assay [3], 2.8.
As to `CN(C)CCOc1ccc(/C(=C(/CCCl)c2ccccc2)c2ccccc2)cc1` [Toremifene] (top concentration 10000 nM), the “selective drug sensitivity score” value in assay [1] is 1.28; in assay [2], -0.02; in assay [3], 6.78.
On the same counts, the results for `CC(=O)Nc1cccc(-n2c(=O)n(C3CC3)c(=O)c3c(Nc4ccc(I)cc4F)n(C)c(=O)c(C)c32)c1` [Trametinib] (top concentration 250 nM) are -8.04, -1.84 and 2.16.
For the compound `O=C(CCCCCCC(=O)Nc1ccc([C@H]2O[C@@H](CSc3nc(-c4ccccc4)c(-c4ccccc4)o3)C[C@@H](c3ccc(CO)cc3)O2)cc1)NO` [Tubacin] (top concentration 10000 nM), the “selective drug sensitivity score” value in assay [1] amounted to 9.84; in assay [2], 8.74; in assay [3] it was 5.54.
On to `CN1CCc2c(c3ccccc3n2Cc2ccc(C(=O)NO)cc2)C1` [Tubastatin_A] (top concentration 10000 nM), for which the results for the “selective drug sensitivity score” value in assay [1], in assay [2] and in assay [3] were 3.36, 2.06 and 2.66, respectively.
On the same counts, the results for `C[C@]1(c2nc3c(C(N)=O)cccc3[nH]2)CCCN1` [Veliparib] (top concentration 10000 nM) are -4.18, -4.18 and -4.18.
The like results for `CS(=O)(=O)c1ccc(C(=O)Nc2ccc(Cl)c(-c3ccccn3)c2)c(Cl)c1` [Vismodegib] (top concentration 10000 nM) were, in that order, 0.36, -1.14 and 2.76.
